Earlier results in paper PMC12246617, “Cryo-EM structures reveal the PP2A–B55α and Eya3 interaction that can be disrupted by a peptide inhibitor” (The Journal of Biological Chemistry, 2025).

System: PP2A–B55
Settings: 6,8-difluoro-4-methylumbelliferyl phosphate substrate; 30 mM Hepes [pH 7.0], 150 mM NaCl, 1 mM MnCl2, 1 mM DTT, 0.01% Triton X-100, 0.1 mg/ml BSA; ref 84 (Padi et al.); read-out: IC50 (phosphatase activity of PP2A–B55)
Excerpt: To identify the factor that led to this discrepancy, we first repeated our as ...

- IC50: 1.1 ± 0.084 µM
Substance: Eya3 peptide: Eya3 peptide (residues 62–108) of Padi et al. (RSSNDYTSQMYSAKPYAHILSVPVSETAYPGQTQYQTLQQTQPYAVY; UniProt Q99504 62-108, looked up, fragment)
